Data as given in article PMC11921695 (BMC Cancer, 2025).

Tested on: patients with HIV-associated KS

## Cn1cnc2c(F)c(Nc3ccc(Br)cc3Cl)c(C(=O)NOCCO)cc21 [selumetinib, 6-(4-Bromo-2-chloro-phenylamino)-7-fluro-3-methyl-3 H-benzoimidazole-5-carboxylic acid (2-hydroxy-ethoxy)-amide hydrogen sulphate]
75 mg bd selumetinib
  grade 3 ARs, all rash acneiform: three
16 treated patients
  patients who experienced at least one adverse event (AE): 16
CTCAE Grade ≤2
  ALT Increased: Number of AEs reported: 13
  AST Increased: Number of AEs reported: 11
  Albumin Decreased: Number of AEs reported: 12
  CPK Increased: Number of AEs reported: 14
  Fatigue: Number of AEs reported: 10
  Nausea: Number of AEs reported: 11
  Red Blood Cell Count Decreased: Number of AEs reported: 22
  Vomiting: Number of AEs reported: 11
E = events, any dose
  Blood and lymphatic system disorders: Adverse Events Grade 1 E: 5
  Blood and lymphatic system disorders: Adverse Events Grade 2 E: 1
  Blood and lymphatic system disorders: Adverse Events Grade3 E: 0
  Blood and lymphatic system disorders: Adverse Reactions Grade 1 E: 4
  Blood and lymphatic system disorders: Adverse Reactions Grade 2 E: 1
  Blood and lymphatic system disorders: Adverse Reactions Grade 3 E: 0
  Cardiac disorders: Adverse Events Grade 1 E: 1
  Cardiac disorders: Adverse Events Grade 2 E: 0
  Cardiac disorders: Adverse Events Grade3 E: 0
  Cardiac disorders: Adverse Reactions Grade 1 E: 0
  Cardiac disorders: Adverse Reactions Grade 2 E: 0
  Cardiac disorders: Adverse Reactions Grade 3 E: 0
  Eye disorders: Adverse Events Grade 1 E: 9
  Eye disorders: Adverse Events Grade 2 E: 3
  Eye disorders: Adverse Events Grade3 E: 0
  Eye disorders: Adverse Reactions Grade 1 E: 6
  Eye disorders: Adverse Reactions Grade 2 E: 3
  Eye disorders: Adverse Reactions Grade 3 E: 0
  Gastrointestinal disorders: Adverse Events Grade 1 E: 47
  Gastrointestinal disorders: Adverse Events Grade 2 E: 13
  Gastrointestinal disorders: Adverse Events Grade3 E: 0
  Gastrointestinal disorders: Adverse Reactions Grade 1 E: 44
  Gastrointestinal disorders: Adverse Reactions Grade 2 E: 9
  Gastrointestinal disorders: Adverse Reactions Grade 3 E: 0
  General disorders and administration site conditions: Adverse Events Grade 1 E: 33
  General disorders and administration site conditions: Adverse Events Grade 2 E: 5
  General disorders and administration site conditions: Adverse Events Grade3 E: 1
  General disorders and administration site conditions: Adverse Reactions Grade 1 E: 23
  General disorders and administration site conditions: Adverse Reactions Grade 2 E: 2
  General disorders and administration site conditions: Adverse Reactions Grade 3 E: 0
  Infections and infestations: Adverse Events Grade 1 E: 2
  Infections and infestations: Adverse Events Grade 2 E: 6
  Infections and infestations: Adverse Events Grade3 E: 0
  Infections and infestations: Adverse Reactions Grade 1 E: 1
  Infections and infestations: Adverse Reactions Grade 2 E: 4
  Infections and infestations: Adverse Reactions Grade 3 E: 0
  Injury, poisoning and procedural complications: Adverse Events Grade 1 E: 2
  Injury, poisoning and procedural complications: Adverse Events Grade 2 E: 3
  Injury, poisoning and procedural complications: Adverse Events Grade3 E: 0
  Injury, poisoning and procedural complications: Adverse Reactions Grade 1 E: 0
  Injury, poisoning and procedural complications: Adverse Reactions Grade 2 E: 0
  Injury, poisoning and procedural complications: Adverse Reactions Grade 3 E: 0
  Investigations: Adverse Events Grade 1 E: 133
  Investigations: Adverse Events Grade 2 E: 7
  Investigations: Adverse Events Grade3 E: 2
  Investigations: Adverse Reactions Grade 1 E: 81
  Investigations: Adverse Reactions Grade 2 E: 6
  Investigations: Adverse Reactions Grade 3 E: 0
  Metabolism and nutrition disorders: Adverse Events Grade 1 E: 13
  Metabolism and nutrition disorders: Adverse Events Grade 2 E: 0
  Metabolism and nutrition disorders: Adverse Events Grade3 E: 0
  Metabolism and nutrition disorders: Adverse Reactions Grade 1 E: 9
  Metabolism and nutrition disorders: Adverse Reactions Grade 2 E: 0
  Metabolism and nutrition disorders: Adverse Reactions Grade 3 E: 0
  Musculoskeletal and connective tissue disorders: Adverse Events Grade 1 E: 4
  Musculoskeletal and connective tissue disorders: Adverse Events Grade 2 E: 0
  Musculoskeletal and connective tissue disorders: Adverse Events Grade3 E: 0
  Musculoskeletal and connective tissue disorders: Adverse Reactions Grade 1 E: 2
  Musculoskeletal and connective tissue disorders: Adverse Reactions Grade 2 E: 0
  Musculoskeletal and connective tissue disorders: Adverse Reactions Grade 3 E: 0
  Nervous system disorders: Adverse Events Grade 1 E: 7
  Nervous system disorders: Adverse Events Grade 2 E: 0
  Nervous system disorders: Adverse Events Grade3 E: 0
  Nervous system disorders: Adverse Reactions Grade 1 E: 5
  Nervous system disorders: Adverse Reactions Grade 2 E: 0
  Nervous system disorders: Adverse Reactions Grade 3 E: 0
  Psychiatric disorders: Adverse Events Grade 1 E: 3
  Psychiatric disorders: Adverse Events Grade 2 E: 0
  Psychiatric disorders: Adverse Events Grade3 E: 0
  Psychiatric disorders: Adverse Reactions Grade 1 E: 3
  Psychiatric disorders: Adverse Reactions Grade 2 E: 0
  Psychiatric disorders: Adverse Reactions Grade 3 E: 0
  Renal and urinary disorders: Adverse Events Grade 1 E: 2
  Renal and urinary disorders: Adverse Events Grade 2 E: 0
  Renal and urinary disorders: Adverse Events Grade3 E: 0
  Renal and urinary disorders: Adverse Reactions Grade 1 E: 1
  Renal and urinary disorders: Adverse Reactions Grade 2 E: 0
  Renal and urinary disorders: Adverse Reactions Grade 3 E: 0
  Respiratory, thoracic and mediastinal disorders: Adverse Events Grade 1 E: 11
  Respiratory, thoracic and mediastinal disorders: Adverse Events Grade 2 E: 2
  Respiratory, thoracic and mediastinal disorders: Adverse Events Grade3 E: 0
  Respiratory, thoracic and mediastinal disorders: Adverse Reactions Grade 1 E: 5
  Respiratory, thoracic and mediastinal disorders: Adverse Reactions Grade 2 E: 1
  Respiratory, thoracic and mediastinal disorders: Adverse Reactions Grade 3 E: 0
  Skin and subcutaneous tissue disorders: Adverse Events Grade 1 E: 29
  Skin and subcutaneous tissue disorders: Adverse Events Grade 2 E: 17
  Skin and subcutaneous tissue disorders: Adverse Events Grade3 E: 3
  Skin and subcutaneous tissue disorders: Adverse Reactions Grade 1 E: 24
  Skin and subcutaneous tissue disorders: Adverse Reactions Grade 2 E: 16
  Skin and subcutaneous tissue disorders: Adverse Reactions Grade 3 E: 3
  Vascular disorders: Adverse Events Grade 1 E: 2
  Vascular disorders: Adverse Events Grade 2 E: 0
  Vascular disorders: Adverse Events Grade3 E: 0
  Vascular disorders: Adverse Reactions Grade 1 E: 0
  Vascular disorders: Adverse Reactions Grade 2 E: 0
  Vascular disorders: Adverse Reactions Grade 3 E: 0
N = patients, any dose
  Blood and lymphatic system disorders: Adverse Events Grade 1 N: 4
  Blood and lymphatic system disorders: Adverse Events Grade 2 N: 1
  Blood and lymphatic system disorders: Adverse Events Grade3 N: 0
  Blood and lymphatic system disorders: Adverse Reactions Grade 1 N: 3
  Blood and lymphatic system disorders: Adverse Reactions Grade 2 N: 1
  Blood and lymphatic system disorders: Adverse Reactions Grade 3 N: 0
  Cardiac disorders: Adverse Events Grade 1 N: 1
  Cardiac disorders: Adverse Events Grade 2 N: 0
  Cardiac disorders: Adverse Events Grade3 N: 0
  Cardiac disorders: Adverse Reactions Grade 1 N: 0
  Cardiac disorders: Adverse Reactions Grade 2 N: 0
  Cardiac disorders: Adverse Reactions Grade 3 N: 0
  Eye disorders: Adverse Events Grade 1 N: 6
  Eye disorders: Adverse Events Grade 2 N: 3
  Eye disorders: Adverse Events Grade3 N: 0
  Eye disorders: Adverse Reactions Grade 1 N: 5
  Eye disorders: Adverse Reactions Grade 2 N: 3
  Eye disorders: Adverse Reactions Grade 3 N: 0
  Gastrointestinal disorders: Adverse Events Grade 1 N: 12
  Gastrointestinal disorders: Adverse Events Grade 2 N: 7
  Gastrointestinal disorders: Adverse Events Grade3 N: 0
  Gastrointestinal disorders: Adverse Reactions Grade 1 N: 12
  Gastrointestinal disorders: Adverse Reactions Grade 2 N: 6
  Gastrointestinal disorders: Adverse Reactions Grade 3 N: 0
  General disorders and administration site conditions: Adverse Events Grade 1 N: 11
  General disorders and administration site conditions: Adverse Events Grade 2 N: 5
  General disorders and administration site conditions: Adverse Events Grade3 N: 1
  General disorders and administration site conditions: Adverse Reactions Grade 1 N: 10
  General disorders and administration site conditions: Adverse Reactions Grade 2 N: 2
  General disorders and administration site conditions: Adverse Reactions Grade 3 N: 0
  Infections and infestations: Adverse Events Grade 1 N: 2
  Infections and infestations: Adverse Events Grade 2 N: 4
  Infections and infestations: Adverse Events Grade3 N: 0
  Infections and infestations: Adverse Reactions Grade 1 N: 1
  Infections and infestations: Adverse Reactions Grade 2 N: 3
  Infections and infestations: Adverse Reactions Grade 3 N: 0
  Injury, poisoning and procedural complications: Adverse Events Grade 1 N: 2
  Injury, poisoning and procedural complications: Adverse Events Grade 2 N: 1
  Injury, poisoning and procedural complications: Adverse Events Grade3 N: 0
  Injury, poisoning and procedural complications: Adverse Reactions Grade 1 N: 0
  Injury, poisoning and procedural complications: Adverse Reactions Grade 2 N: 0
  Injury, poisoning and procedural complications: Adverse Reactions Grade 3 N: 0
  Investigations: Adverse Events Grade 1 N: 15
  Investigations: Adverse Events Grade 2 N: 4
  Investigations: Adverse Events Grade3 N: 2
  Investigations: Adverse Reactions Grade 1 N: 14
  Investigations: Adverse Reactions Grade 2 N: 3
  Investigations: Adverse Reactions Grade 3 N: 0
  Metabolism and nutrition disorders: Adverse Events Grade 1 N: 5
  Metabolism and nutrition disorders: Adverse Events Grade 2 N: 0
  Metabolism and nutrition disorders: Adverse Events Grade3 N: 0
  Metabolism and nutrition disorders: Adverse Reactions Grade 1 N: 5
  Metabolism and nutrition disorders: Adverse Reactions Grade 2 N: 0
  Metabolism and nutrition disorders: Adverse Reactions Grade 3 N: 0
  Musculoskeletal and connective tissue disorders: Adverse Events Grade 1 N: 4
  Musculoskeletal and connective tissue disorders: Adverse Events Grade 2 N: 0
  Musculoskeletal and connective tissue disorders: Adverse Events Grade3 N: 0
  Musculoskeletal and connective tissue disorders: Adverse Reactions Grade 1 N: 2
  Musculoskeletal and connective tissue disorders: Adverse Reactions Grade 2 N: 0
  Musculoskeletal and connective tissue disorders: Adverse Reactions Grade 3 N: 0
  Nervous system disorders: Adverse Events Grade 1 N: 4
  Nervous system disorders: Adverse Events Grade 2 N: 0
  Nervous system disorders: Adverse Events Grade3 N: 0
  Nervous system disorders: Adverse Reactions Grade 1 N: 4
  Nervous system disorders: Adverse Reactions Grade 2 N: 0
  Nervous system disorders: Adverse Reactions Grade 3 N: 0
  Psychiatric disorders: Adverse Events Grade 1 N: 3
  Psychiatric disorders: Adverse Events Grade 2 N: 0
  Psychiatric disorders: Adverse Events Grade3 N: 0
  Psychiatric disorders: Adverse Reactions Grade 1 N: 3
  Psychiatric disorders: Adverse Reactions Grade 2 N: 0
  Psychiatric disorders: Adverse Reactions Grade 3 N: 0
  Renal and urinary disorders: Adverse Events Grade 1 N: 2
  Renal and urinary disorders: Adverse Events Grade 2 N: 0
  Renal and urinary disorders: Adverse Events Grade3 N: 0
  Renal and urinary disorders: Adverse Reactions Grade 1 N: 1
  Renal and urinary disorders: Adverse Reactions Grade 2 N: 0
  Renal and urinary disorders: Adverse Reactions Grade 3 N: 0
  Respiratory, thoracic and mediastinal disorders: Adverse Events Grade 1 N: 4
  Respiratory, thoracic and mediastinal disorders: Adverse Events Grade 2 N: 1
  Respiratory, thoracic and mediastinal disorders: Adverse Events Grade3 N: 0
  Respiratory, thoracic and mediastinal disorders: Adverse Reactions Grade 1 N: 4
  Respiratory, thoracic and mediastinal disorders: Adverse Reactions Grade 2 N: 1
  Respiratory, thoracic and mediastinal disorders: Adverse Reactions Grade 3 N: 0
  Skin and subcutaneous tissue disorders: Adverse Events Grade 1 N: 10
  Skin and subcutaneous tissue disorders: Adverse Events Grade 2 N: 9
  Skin and subcutaneous tissue disorders: Adverse Events Grade3 N: 3
  Skin and subcutaneous tissue disorders: Adverse Reactions Grade 1 N: 10
  Skin and subcutaneous tissue disorders: Adverse Reactions Grade 2 N: 9
  Skin and subcutaneous tissue disorders: Adverse Reactions Grade 3 N: 3
  Vascular disorders: Adverse Events Grade 1 N: 2
  Vascular disorders: Adverse Events Grade 2 N: 0
  Vascular disorders: Adverse Events Grade3 N: 0
  Vascular disorders: Adverse Reactions Grade 1 N: 0
  Vascular disorders: Adverse Reactions Grade 2 N: 0
  Vascular disorders: Adverse Reactions Grade 3 N: 0
human, in vivo
  further AEs reported: 366
N (%) of 16 patients
  ALT Increased: Number of patients experiencing at least one grade <2AE: 5 (31%)
  AST Increased: Number of patients experiencing at least one grade <2AE: 7 (44%)
  Albumin Decreased: Number of patients experiencing at least one grade <2AE: 3 (19%)
  CPK Increased: Number of patients experiencing at least one grade <2AE: 9 (56%)
  Fatigue: Number of patients experiencing at least one grade <2AE: 9 (56%)
  Nausea: Number of patients experiencing at least one grade <2AE: 7 (44%)
  Red Blood Cell Count Decreased: Number of patients experiencing at least one grade <2AE: 7 (44%)
  Vomiting: Number of patients experiencing at least one grade <2AE: 3 (19%)
number
  serious adverse event (SAE), unrelated to study treatment: one
  serious adverse reactions (SARs): two
Number of events
  AEs graded 1 or 2: 360
Number of events, in five separate patients
  grade 3 AEs (non-serious): six
Of the further 366 AEs
  AEs categorised as grade 1 or 2: 98%
  AEs deemed as ARs: 69%
